Measured values from patent US8901176B2, “Methods for treatment of Parkinson's disease” (Newron Pharmaceuticals, S.P.A., priority 2003, dated 2014).

What was measured:
[1] = system: rodents given MPTP; conditions: cited from earlier work
[2] = system: patients affected by idiopathic early Parkinson's disease; experiment: Phase II dose finding, double-blind, placebo controlled 12-week study: efficacy (UPDRS section III responder rate, CGI); format: in vivo, human; conditions: for Non Responders, % / Responders, % / Responder rate (improvement of at least 30% in UPDRS section III): final visit; for Responder rate at final visit, %: 12 weeks, ITT cohort, versus placebo 21.4%
Excerpt: Mode of administration was oral, once daily; and duration of treatment was 12 weeks. The primary efficacy variable in this study was the proportion of patients considered to have achieved a response defined as an improvement of at least 30% in the unified Parkinson's disease ratings scale (UPDRS) section III score between baseline (Visit 2) and the end of the study (Visit 9 or early study termination).
The intent-to-treat (ITT) cohort was defined as all randomized patients who received at least one dose of study medication and for whom at least one UPDRS section III assessment after treatment was available.
The analysis based on the ITT Cohort was considered a primary analysis and was performed for all parameters except safety parameters.
The per-protocol (PP) cohort was defined as all patients who completed the study without major protocol violations. Minor violations not leading to exclusion from the PP cohort were defined during a blind review meeting after data cleaning. Drop-outs due to lack of efficacy and due to adverse events were not excluded from the PP cohort.
The primary efficacy variable was the percentage of patients with an improvement of at least 30% in the UPDRS section III score between baseline (Visit 2) and the end of the study (Visit 9 or early study termination). Comparison between the treatment groups was performed in the ITT analysis cohort (primary analysis) using a logistic regression model taking into account UPDRS section III score at baseline, the patient's treatment history (de-novo, single dopamine agonist alone, single dopamine agonists with a prior Parkinson's disease treatment) and the country.
The percentage of patients with an improvement of at least 30% in the UPDRS section III score at Visits 5 and 7 was analyzed using the same methods as for the primary efficacy variable.

[3] = system: healthy volunteers; conditions: in vivo; cited from earlier work
[4] = system: patients affected by idiopathic early Parkinson's disease; experiment: Phase II dose finding, double-blind, placebo controlled 12-week study: safety (adverse events, vital signs, ECG, laboratory); conditions: for related adverse events: placebo 25.0%; for percentage of patients with adverse events: placebo 50.0%
Method: Safety was monitored by adverse events, vital signs, 12-lead ECG and clinical laboratory variables.
Patients were assigned to the study treatment group as randomized.
The analyses based on the safety cohort were performed for the safety parameters, demographic data and the most important baseline characteristics which were defined in the analysis plan.
Incidences of adverse events were calculated overall, by body system and by preferred term. Vital sign measurements at baseline (Visit 2) were compared to further visits using the Kruskal-Wallis test. All other safety variables were analysed descriptively.

[5] = pre-clinical studies; cited from earlier work
[6] = system: MAO-B; conditions: cited from earlier work
[7] = system: animal model of wearing off; conditions: response diminished after 28 days continuous L-dopa treatment; cited from earlier work
[8] = system: healthy volunteers; conditions: 71 healthy volunteers; single doses of 10 mg/kg or 7 days of repeated doses of 5 mg/kg/day; cited from earlier work
[9] = system: primates; conditions: after 12 week daily administration; cited from earlier work
[10] = De Novo subgroup (N = 66), Safinamide 0.5 mg/kg
[11] = De Novo subgroup (N = 66), Safinamide 1.0 mg/kg

## C[C@H](NCc1ccc(OCc2cccc(F)c2)cc1)C(N)=O [Safinamide, (+)-(S)-2-[[p-[(m-fluorobenzyl)oxy]-benzyl]amino]propionamide]
[1]; given 4 h after the toxin (MPTP) administration
  nigral neuronal death: capable of preventing nigral neuronal death
[1]; given prior to the administration of MPTP
  neostriatal dopamine depletion: prevented neostriatal dopamine depletion
[2]; [10]
  Non Responders, %: 77.3%
  Responders, %: 22.7%
[2]; [11]
  Non Responders, %: 77.3%
  Responders, %: 22.7%
[2]; Safinamide 0.5 mg/kg oral once daily, group N = 55, p 0.132
  Responder rate at final visit, %: 30.9%
[2]; Safinamide 1.0 mg/kg oral once daily, group N = 56, p 0.016
  Responder rate at final visit, %: 37.5%
[2]; Single DA subgroup (N = 101), Safinamide 0.5 mg/kg add-on
  Non Responders, %: 63.6%
[2]; Single DA subgroup (N = 101), Safinamide 1.0 mg/kg add-on
  Non Responders, %: 52.9%
[2]; Single DA subgroup (N = 101; stable dopamine agonist treatment), Safinamide 0.5 mg/kg add-on, placebo 20.6%
  Responders, %: 36.4%
[2]; Single DA subgroup (N = 101; stable dopamine agonist treatment), Safinamide 1.0 mg/kg add-on, placebo 20.6%, P = 0.024
  Responders, %: 47.1%
[2]; patients who received a single dopamine agonist alone, 0.5 mg safinamide, placebo 25.0%
  Responder rate (improvement of at least 30% in UPDRS section III): 33.3%
[2]; patients who received a single dopamine agonist alone, 1.0 mg safinamide, placebo 25.0%
  Responder rate (improvement of at least 30% in UPDRS section III): 50.0%
[2]; patients with a dopamine agonist with a prior Parkinson's disease treatment, 0.5 mg safinamide, placebo 14.3%
  Responder rate (improvement of at least 30% in UPDRS section III): 40.0%
[2]; patients with a dopamine agonist with a prior Parkinson's disease treatment, 1.0 mg safinamide, placebo 14.3%
  Responder rate (improvement of at least 30% in UPDRS section III): 43.8%
[2]; safinamide 0.5 mg/kg group versus other groups, p=0.049, Fisher's exact test
  changes in CGI part I between baseline (Visit 2) and Visit 6: better outcome
[2]; safinamide added to a stabilized dose of a variety of dopamine agonists
  average improvement of patients: 27.8%
[2]; safinamide administered alone
  average improvement of patients: 6.9%
[3]
  amount of i.v. tyramine to raise BP by 30 mm Hg, compared to placebo (cheese effect): equal or greater amount of i.v. tyramine was required
[4]; 0.5 and 1.0 mg/kg, 12 weeks
  overall safety (other vital signs, ECG recordings, laboratory parameters): no safety concerns were raised
[4]; other treatment groups (safinamide 0.5 mg/kg, placebo)
  mean heart rate, change from baseline to the final visit: a decrease was observed
[4]; safinamide 0.5 mg/kg group
  tremor aggravated (nervous system disorders, most frequent adverse event): 3.6 % of patients
  related adverse events: 12.5 % of patients
  percentage of patients with adverse events: 37.5 % of patients
[4]; safinamide 0.5 mg/kg group (atrial fibrillation, pregnancy), unlikely related or not related
  patients who experienced serious adverse events: Two
[4]; safinamide 1.0 mg/kg group
  nausea (gastrointestinal system disorders, most frequent adverse event): 3.6 % of patients
  related adverse events: 10.7 % of patients
  percentage of patients with adverse events: 32.1 % of patients
[4]; safinamide 1.0 mg/kg group (myasthenia gravis), not related
  patients who experienced serious adverse events: one
[4]; safinamide 1.0 mg/kg group, p=0.037, Kruskal-Wallis test
  mean heart rate, change from baseline to the final visit: increased
[4]; whole study, 0.5 and 1.0 mg/kg groups
  deaths: No deaths were reported
[5]
  anticonvulsant activity: broad spectrum of anticonvulsant activity
[6]
  inhibition of MAO-B activity: potent, reversible inhibitor
[7]
  motor effect in response to L-dopa: restores the efficacy and duration of the motor effect
[8]
  side effects: did not produce any clinically relevant side effect
[9]
  neostriatal dopamine: significant increase of neostriatal dopamine with increased turnover
